Tests used:
[1] = system: Anopheles gambiae mosquito isoform A OctR (AgAOctR); assay: OctR activation, change in intracellular calcium; type: cell-based; details: for selectivity Ki(Hsα2-AR)/EC50(OctR): AgAOctR over Homo sapien α2-AR subtypes
Excerpt: (§1) Functional expression of cloned arthropod OctRs and human α2-ARs: The cDNAs for α-like OctRs from different arthropod species (e.g., Anopheles gambiae, Aedes aegypti, Periplaneta americana, Drosophila melanogaster, Ixodes scapularis, Balanus improvises) and for α2-AR subtypes from humans were individually subcloned into mammalian expression vectors. These plasmids, which harbor a resistance gene for the selection drug G418 and the cDNA sequence for the receptor of interest, were individually transfected into mammalian cells using a calcium phosphate precipitation method. G418 selection was then employed to generated stable clonal cell lines. Utilizing rapid filtration radioligand binding techniques, the cell surface density of receptor expression of the individual clonal cell lines was determined at equilibrium and those with similar high levels of expression were selected for further experiments. Briefly, binding conditions were 50 mM Tris binding buffer pH 7.4 at 25° C. and an ice-cold wash buffer 10 mM Tris-HCl, pH 7.4). The radioligand was [3H]rauwolscine and non-specific binding was determined in the presence of 10 μM atipamezole. Following the addition of membranes prepared from the clonal cell lines, samples were mixed and allowed 2 hr. to reach equilibrium before rapid filtration and washing through 0.3% PEI-treated GF/C filters. The radioactivity remaining on the filters was quantified by scintillation counting. Receptor density (Bmax) was back calculated knowing the specific activity of the radioligand and applying the equation for a square hyperbola model: Bmax=(Y·(KD+X))/X, where Y is [specifically bound radioligand] and X=[radio ligand concentration]. The affinity (KD) for the radioligand for each receptor was determined in separate saturation isotherm binding experiments using the same binding conditions as describe above.
(§2) Measurement of OctR activation by measuring changes in intracellular calcium: Activation of arthropod α-like OctRs increases intracellular calcium via a Gq-coupling mechanism. This involves activation of phospholipase C leading to an increase in intracellular inositol triphosphate (IP3) which then activates IP3-gated calcium channels in the endoplasmic reticulum causing a transient rise in intracellular calcium. These changes in intracellular calcium upon OctR activation were measured by loading cells with intracellular calcium sensitive dye CALCIUM 6QR and reading the change in calcium-induced fluorescent signal over time on a FlexStation 3 microplate reader.

[2] = system: Ixodes scapularis tick OctR (IsTOctR); assay: OctR activation, change in intracellular calcium; type: cell-based
Excerpt: as §1, §2

[3] = target: T1, human α2C adrenergic receptor (α2c-AR) (Homo sapiens, UniProt P18825); assay: Measurement of intracellular cAMP (cAMP-Glo); type: cell-based, Homo sapien; details: in words; normalized to 1 μM forskolin; FIG. 8
T1 construct: expressed in transfected cells
T1 sequence (P18825 1-462): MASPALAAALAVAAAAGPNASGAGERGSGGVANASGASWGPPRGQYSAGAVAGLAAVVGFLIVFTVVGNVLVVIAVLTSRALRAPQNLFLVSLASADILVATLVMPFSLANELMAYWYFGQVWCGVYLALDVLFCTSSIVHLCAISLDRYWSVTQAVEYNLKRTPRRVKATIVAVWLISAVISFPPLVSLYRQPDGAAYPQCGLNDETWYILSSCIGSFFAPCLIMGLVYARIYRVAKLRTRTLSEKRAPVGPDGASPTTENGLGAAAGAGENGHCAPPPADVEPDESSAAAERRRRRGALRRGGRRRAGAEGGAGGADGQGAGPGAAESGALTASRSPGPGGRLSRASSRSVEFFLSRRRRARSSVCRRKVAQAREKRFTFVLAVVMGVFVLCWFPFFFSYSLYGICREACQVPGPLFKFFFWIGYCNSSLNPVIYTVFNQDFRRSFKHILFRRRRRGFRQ
Excerpt: as §1, with “Briefly, binding conditions were 50 mM Tris binding buffer pH 7.4 at 25° C. and an ice-cold wash buffer 10 mM Tris-HCl, pH 7.4).” left out, “Following the addition of membranes prepared from the clonal cell lines, samples were mixed and allowed 2 hr. to reach equilibrium before rapid filtration and washing through 0.3% PEI-treated GF/C filters.” left out, “The affinity (KD) for the radioligand for each receptor was determined in separate saturation isotherm binding experiments using the same binding conditions as describe above.” left out

[4] = target: T2, AgAOctR (Anopheles octopamine receptor isoform A), cloned α-like OctR (Anopheles gambiae, UniProt Q7PRZ8); assay: OctR activation: change in intracellular calcium (CALCIUM 6QR dye, FlexStation 3) in stably transfected mammalian cells; type: cell-based; details: agonist
T2 construct: Gq calcium readout
T2 sequence (Q7PRZ8 1-592): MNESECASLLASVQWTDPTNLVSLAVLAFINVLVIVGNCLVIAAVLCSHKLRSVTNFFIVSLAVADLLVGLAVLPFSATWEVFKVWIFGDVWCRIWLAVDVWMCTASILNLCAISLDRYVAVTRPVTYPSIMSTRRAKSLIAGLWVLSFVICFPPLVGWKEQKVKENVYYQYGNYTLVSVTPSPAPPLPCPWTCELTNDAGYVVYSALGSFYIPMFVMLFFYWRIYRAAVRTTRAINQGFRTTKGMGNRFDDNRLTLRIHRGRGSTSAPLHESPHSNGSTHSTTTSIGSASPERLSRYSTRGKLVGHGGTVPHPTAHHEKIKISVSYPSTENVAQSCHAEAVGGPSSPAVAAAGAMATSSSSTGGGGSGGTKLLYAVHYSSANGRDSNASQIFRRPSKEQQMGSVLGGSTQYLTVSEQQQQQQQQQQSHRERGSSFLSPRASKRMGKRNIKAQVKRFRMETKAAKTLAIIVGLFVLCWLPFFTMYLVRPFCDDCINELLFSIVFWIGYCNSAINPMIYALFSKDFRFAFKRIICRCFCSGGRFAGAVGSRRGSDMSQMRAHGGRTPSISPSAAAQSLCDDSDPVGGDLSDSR
Excerpt: as §1, §2

[5] = system: IsTOctR (Ixodes octopamine receptor), cloned α-like OctR; assay: as above; type: cell-based, Ixodes scapularis; details: agonist, read-out: IsTOctR (Ixodes octopamine receptor) EC50
Excerpt: as §1, §2

[6] = system: AeOctR (Aedes octopamine receptor), cloned α-like OctR; assay: as above; type: cell-based, Aedes aegypti; details: agonist
Excerpt: as §1, §2

[7] = target: T3, Hsα2A-AR (human α2A adrenergic receptor) (Homo sapiens, UniProt P08913); assay: [3H]rauwolscine competition radioligand binding, membranes of clonal mammalian cell lines; details: 50 mM Tris pH 7.4, 25° C., 2 hr, Cheng-Prusoff
T3 construct: expressed in transfected cells; membranes
T3 sequence (P08913 whole entry): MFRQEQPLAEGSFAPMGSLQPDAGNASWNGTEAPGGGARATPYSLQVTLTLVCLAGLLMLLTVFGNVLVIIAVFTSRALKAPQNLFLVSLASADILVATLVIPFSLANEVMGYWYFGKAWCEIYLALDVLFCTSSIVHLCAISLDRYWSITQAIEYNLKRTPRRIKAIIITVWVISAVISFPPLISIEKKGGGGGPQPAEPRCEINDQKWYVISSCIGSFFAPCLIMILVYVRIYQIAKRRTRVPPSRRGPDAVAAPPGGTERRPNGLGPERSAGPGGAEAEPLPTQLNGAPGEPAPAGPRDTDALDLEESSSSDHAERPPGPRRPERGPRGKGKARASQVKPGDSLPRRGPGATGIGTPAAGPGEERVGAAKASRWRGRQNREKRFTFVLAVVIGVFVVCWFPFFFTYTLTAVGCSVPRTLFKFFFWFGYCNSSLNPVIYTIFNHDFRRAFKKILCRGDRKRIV
Excerpt: as §1
(§3) Measurement of compound affinities by competition radioligand binding: Affinities (Ki) for compounds were determined by [3H]rauwolscine competition binding using the same binding conditions as described above. The Ki values were calculated from IC50 values using the Cheng-Prusoff equation.

[8] = target: T4, Hsα2C-AR (human α2C adrenergic receptor) (Homo sapiens, UniProt P18825); assay: as above; details: 50 mM Tris pH 7.4, 25° C., 2 hr, Cheng-Prusoff
T4 construct: expressed in transfected cells
T4 sequence (P18825 1-462): T1 sequence (P18825 1-462)
Excerpt: as §1, §3

[9] = target: T1, human α2C adrenergic receptor (α2c-AR); assay: Intracellular cyclic AMP (cAMP-Glo) functional assay, stably transfected mammalian cells; type: cell-based
Excerpt: as §1, with “Briefly, binding conditions were 50 mM Tris binding buffer pH 7.4 at 25° C. and an ice-cold wash buffer 10 mM Tris-HCl, pH 7.4).” left out, “Following the addition of membranes prepared from the clonal cell lines, samples were mixed and allowed 2 hr. to reach equilibrium before rapid filtration and washing through 0.3% PEI-treated GF/C filters.” left out, “The affinity (KD) for the radioligand for each receptor was determined in separate saturation isotherm binding experiments using the same binding conditions as describe above.” left out

[10] = system: α2-ARs; assay: Functional profile at α2-ARs (preliminary studies); type: cell-based, Homo sapien
Excerpt: as §1, with “Briefly, binding conditions were 50 mM Tris binding buffer pH 7.4 at 25° C. and an ice-cold wash buffer 10 mM Tris-HCl, pH 7.4).” left out, “Following the addition of membranes prepared from the clonal cell lines, samples were mixed and allowed 2 hr. to reach equilibrium before rapid filtration and washing through 0.3% PEI-treated GF/C filters.” left out, “The affinity (KD) for the radioligand for each receptor was determined in separate saturation isotherm binding experiments using the same binding conditions as describe above.” left out

[11] = system: α-like OctRs; assay: OctR activation, change in intracellular calcium (statements on OctRs in general); type: cell-based; details: relative to fluorinated AZ1411
Excerpt: as §1, with “Briefly, binding conditions were 50 mM Tris binding buffer pH 7.4 at 25° C. and an ice-cold wash buffer 10 mM Tris-HCl, pH 7.4).” left out, “Following the addition of membranes prepared from the clonal cell lines, samples were mixed and allowed 2 hr. to reach equilibrium before rapid filtration and washing through 0.3% PEI-treated GF/C filters.” left out, “The affinity (KD) for the radioligand for each receptor was determined in separate saturation isotherm binding experiments using the same binding conditions as describe above.” left out

SMILES	selectivity Ki(Hsα2-AR)/EC50(OctR) [1]	selectivity Ki(Hsα2-AR)/EC50(OctR) ([2]; Ixodes tick OctR over Homo sapien α2-AR subtypes)	efficacy (change in intracellular cyclic AMP) [3]	potency (change in intracellular cyclic AMP) [3]	EC50 [4]	EC50 [5]	EC50 [6]	Ki [7]	Ki [8]	EC50 [9]	efficacy (full/partial agonist) ([1]; in words, FIGS. 9-12)	potency (EC50) ([1]; in words, FIGS. 9-12)	potency (EC50) ([2]; in words, FIG. 9)	efficacy (full/partial agonist) ([2]; in words, FIGS. 9, 11)	functional mode at α2-ARs [10]	potency for OctRs compared with AZ1411 [11]
C=C(c1cnc[nH]1)c1cccc(F)c1C [AZ1411]	highly selective	highly selective	partial agonist	low potency	0.11 ± 0.058 nM	2.9 ± 1.3 nM	81 ± 46 nM	494 ± 177 nM	3530 ± 1590 nM	931 nM						
C=C(c1cnc[nH]1)c1cccc(Cl)c1C [AZ1436]	highly selective				0.025 ± 0.0019 nM	1.8 ± 0.83 nM					full agonist	potent	potent	full agonist	likely an antagonist	2-4

Reference: US10766866B2, “Deterrents for arthropods and marine organisms” (priority 2017, dated 2020)
